We go through seven compounds from article PMC7265447, “Ultra-rapid glutathionylation of chymotrypsinogen in its molten globule-like conformation: A comparison to archaeal proteins” (Scientific Reports, 2020).

Data set [1] has as its target T1, reduced α-chymotrypsinogen A (rChTg) (Bos taurus, UniProt P00766). Kind of data set: Cys-DNB adduct absorbance at […] nm. The data set is classed as binding. The following applies: pH 5.0, 0.28 M urea, 25 °C; reduced protein; covalent; average of 10 -SH.
For data set [2], the target named is T2, reduced Bacterioferritin Comigratory Protein 1 (rBcp1) (Saccharolobus solfataricus, UniProt Q97WP9).
T2 construct: gene bcp-1; recombinant in E. coli BL21(DE3)-RIL (pET30Bcp1), HisTrap purified, 18 kDa band
Kind of data set: Cys-DNB adduct absorbance at […] nm. In kind it is binding. Conditions: pH 7.4, 0.12 M urea, 25 °C, covalent, 1 -SH/mol.

Data set [3] deals with T3, reduced Protein Disulphide Oxidoreductase (rSsPDO) (Saccharolobus solfataricus, UniProt Q980T5).
T3 construct: gene SSO0192; recombinant in E. coli, HisTrap and Resource Q purified, about 27 kDa band
T3 sequence (Q980T5 1-233): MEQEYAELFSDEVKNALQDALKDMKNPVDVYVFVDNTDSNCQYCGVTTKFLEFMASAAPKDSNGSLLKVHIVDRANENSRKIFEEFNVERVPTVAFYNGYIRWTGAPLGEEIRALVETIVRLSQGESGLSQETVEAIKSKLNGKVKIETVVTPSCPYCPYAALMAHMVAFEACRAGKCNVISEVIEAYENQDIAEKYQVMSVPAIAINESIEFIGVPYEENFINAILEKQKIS
Nature of the data set: Cys-DNB adduct absorbance at […] nm. In kind it is binding. The following applies: pH 7.4, 0.4 M urea, 25 °C, covalent, 3 -SH/mol.

For data set [4], the target named is Cys50 (UniProt position 50, STREACAFRDN). Nature of the data set: chemical modification. The following applies: 25 °C; 20 mM Britton-Robinson buffers; reduced, molten globule-like conformation in 0.2 M urea; 2.6 µM protein.
For data set [5], the target named is T2, reduced Bacterioferritin Comigratory Protein 1 (rBcp1). Kind of data set: loss of reactive Cys, DTNB titration. In kind it is binding. The following applies: pH 7.4, 0.2 M urea, 25 °C, covalent, 1 -SH/mol. The source says:
loss of reactive Cys, DTNB titration on reduced Bacterioferritin Comigratory Protein 1 (rBcp1)

Data set [6] addresses T3, reduced Protein Disulphide Oxidoreductase (rSsPDO). Nature of the data set: loss of reactive Cys, DTNB titration. The data set is classed as binding. Conditions: pH 7.4, 0.4 M urea, 25 °C, covalent, 2 -SH/mol. The source says:
loss of reactive Cys, DTNB titration on reduced Protein Disulphide Oxidoreductase (rSsPDO)

The target in data set [7] is T1, reduced α-chymotrypsinogen A (rChTg). Nature of the data set: thiol loss, DTNB titration. In kind it is binding. The following applies: pH 5.0, 0.2 M urea, 25 °C; reduced protein; covalent; 8 -SH/mol. The source says:
thiol loss, DTNB titration on reduced α-chymotrypsinogen A (rChTg)

For data set [8] the target is unchanged. Kind of data set: Cys-NBD adduct absorbance at […] nm. Conditions: pH 5.0, 0.28 M urea, 25 °C; reduced protein; covalent; average of 10 -SH. The data set is classed as binding.
Data set [9] concerns the target T2, reduced Bacterioferritin Comigratory Protein 1 (rBcp1). Kind of data set: Cys-NBD adduct absorbance at […] nm. In kind it is binding. Conditions: pH 7.4, 0.12 M urea, 25 °C, covalent, 1 -SH/mol.
Data set [10] addresses T3, reduced Protein Disulphide Oxidoreductase (rSsPDO). Kind of data set: Cys-NBD adduct absorbance at […] nm. Conditions: pH 7.4, 0.4 M urea, 25 °C, covalent, 2 -SH/mol. The data set is classed as binding.
Data set [11] addresses Cys45 (UniProt position 45, DDTPGCTREAS). Nature of the data set: chemical modification. The following applies: 25 °C; 20 mM Britton-Robinson buffers; reduced, molten globule-like conformation in 0.2 M urea; 2.6 µM protein.

T2 sequence (Q97WP9 entry or part of it): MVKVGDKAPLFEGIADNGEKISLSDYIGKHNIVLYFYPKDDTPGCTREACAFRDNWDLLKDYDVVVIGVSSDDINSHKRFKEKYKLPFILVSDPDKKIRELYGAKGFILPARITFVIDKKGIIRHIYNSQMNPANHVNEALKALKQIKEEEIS

Take `O=[N+]([O-])c1ccc(Cl)c([N+](=O)[O-])c1` [CDNB, 1-chloro-2,4-dinitrobenzene]: the “Reduced ChTg / k (M^-1 s^-1) (-SH/mol ChTg)” value (shortened to “Reduced ChTg / k”) in [1] stood at 0.19 ± 0.01 M⁻¹ s⁻¹. Also, the “Reduced Bcp1 / k (M^-1 s^-1) (-SH/mole Bcp1)” value (“Reduced Bcp1 / k” below) in [2] was 0.55 ± 0.03 M⁻¹ s⁻¹. Further, in [3], the “Reduced SsPDO / k (M^-1 s^-1) (-SH/mole SsPDO)” value (from here on “Reduced SsPDO / k”) was found to be 1.6 ± 0.1 M⁻¹ s⁻¹.

A word on the pKa: it is the pH at which an ionisable group is half protonated. Read a high pKa as a weaker acid or stronger base. Consider “Bacterioferritin comigratory protein 1 (Bcp1) C45S mutant, reduced (rC45S) (Sulfolobus solfataricus (Saccharolobus solfataricus); C45S)”, for which the pKa in data set [4] is 7.6 ± 0.1.

Consider `NCCSSCCN` [cystamine], for which the “Reduced Bcp1 / k” value in data set [5] was determined as 33 ± 3 M⁻¹ s⁻¹. Also, in [6], the “Reduced SsPDO / k” value was found to be 20 ± 2 M⁻¹ s⁻¹.

In the case of `N[C@@H](CSSC[C@H](N)C(=O)O)C(=O)O` [cystine], in [5], the “Reduced Bcp1 / k” value was found to be 115 ± 10 M⁻¹ s⁻¹. For the same compound, in data set [7], the “Reduced ChTg / k” value came out at 0.56 ± 0.02 M⁻¹ s⁻¹. Moreover, the “Reduced SsPDO / k” value in [6] stood at 10 ± 2 M⁻¹ s⁻¹.

As to `O=[N+]([O-])c1ccc(Cl)c2nonc12` [NBD-Cl, 4-chloro-7-nitrobenzofurazan], the “Reduced ChTg / k” value in data set [8] is 12.6 ± 0.5 M⁻¹ s⁻¹. Besides, the “Reduced Bcp1 / k” value in [9] was 27 ± 3 M⁻¹ s⁻¹. Besides, in data set [10], the “Reduced SsPDO / k” value stood at 72 ± 3 M⁻¹ s⁻¹.

On to “Bacterioferritin comigratory protein 1 (Bcp1) C50S mutant, reduced (rC50S) (Sulfolobus solfataricus (Saccharolobus solfataricus); C50S)”, for which the pKa in data set [11] is listed as 7.9 ± 0.1.

As to `N[C@@H](CCSSCC[C@H](N)C(=O)O)C(=O)O` [homocystine], in data set [5], the “Reduced Bcp1 / k” value was 15 ± 1 M⁻¹ s⁻¹. Besides, the “Reduced SsPDO / k” value in [6] worked out at 6 ± 1 M⁻¹ s⁻¹.
